Assay results from the supplement of paper PMC10307832.

Compound: CCn1c(-c2nonc2N)nc2c(C#CC(C)(C)O)ncc(OC[C@H]3CCCNC3)c21 + CS(=O)(=O)N1CCN(Cc2cc3nc(-c4cccc5[nH]ncc45)nc(N4CCOCC4)c3s2)CC1 [Pictilisib] (partner 1 µM)
Assay: relative viability (nuclei count vs DMSO), 5 days (fraction); higher = more cells survive
Details: first compound 0.01 µM
How it was run: (§1)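 Each reported value is a median over duplicate plates. It expresses relative viability: treated-well nuclei count divided by vehicle-well nuclei count. Lung cancer cell lines in 1536-well plates were dosed by pin tool a day after seeding, alone with one drug or with a fixed anchor-drug dose plus five library-drug doses (not always all listed) in √10 steps, and nuclei were counted after 5 days.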

Cell Line | relative viability
LU99A | 0.33
BEN | 0.565
HARA | 0.474
HCC-78 | 0.191
NCI-H322M | 0.448
A-427 | 0.754
NCI-H441 | 0.472
NCI-H1734 | 0.456
NCI-H460 | 0.426
NCI-H2347 | 0.456
NCI-H1395 | 0.665
201T | 0.722
NCI-H1915 | 0.977
HCC-827 | 1.18
LXF-289 | 0.765
NCI-H23 | 0.421
NCI-H647 | 0.366

Cell Line | relative viability
NCI-H1651 | 0.551
EPLC-272H | 0.287
NCI-H1792 | 0.322
NCI-H1355 | 0.534
NCI-H3122 | 0.606
NCI-H1437 | 0.445
NCI-H1755 | 0.426
HCC-15 | 0.689
NCI-H1793 | 0.282
PC-14 | 0.633
EKVX | 0.466
LC-2-ad | 0.303
NCI-H1944 | 0.357
NCI-H1975 | 0.335
RERF-LC-KJ | 0.578
ABC-1 | 0.64

Same assay, conditions: first compound 0.03162 µM

Cell Line | relative viability
LU99A | 0.353
BEN | 0.584
HARA | 0.359
HCC-78 | 0.217
NCI-H322M | 0.483
LCLC-97TM1 | 0.208
A-427 | 0.649
NCI-H441 | 0.494
NCI-H1734 | 0.466
NCI-H460 | 0.314
NCI-H2347 | 0.675
NCI-H1395 | 0.536
201T | 0.667
NCI-H1915 | 0.941
HCC-827 | 0.966
LXF-289 | 0.798
NCI-H23 | 0.375

Cell Line | relative viability
NCI-H647 | 0.468
NCI-H1651 | 0.564
EPLC-272H | 0.282
NCI-H1792 | 0.276
NCI-H1355 | 0.361
NCI-H3122 | 0.612
NCI-H1437 | 0.522
NCI-H1755 | 0.445
HCC-15 | 0.724
NCI-H1793 | 0.322
PC-14 | 0.754
EKVX | 0.468
LC-2-ad | 0.507
NCI-H1944 | 0.276
NCI-H1975 | 0.255
RERF-LC-KJ | 0.566
ABC-1 | 0.862

Same assay, conditions: first compound 0.1 µM

Cell Line | relative viability
LU99A | 0.294
BEN | 0.489
HARA | 0.376
HCC-78 | 0.194
NCI-H322M | 0.341
LCLC-97TM1 | 0.231
A-427 | 0.747
NCI-H441 | 0.522
NCI-H1734 | 0.403
NCI-H460 | 0.203
NCI-H2347 | 0.0164
NCI-H1395 | 0.561
201T | 0.701
NCI-H1915 | 0.957
HCC-827 | 0.865
LXF-289 | 0.715
NCI-H23 | 0.373

Cell Line | relative viability
NCI-H647 | 0.23
NCI-H1651 | 0.607
EPLC-272H | 0.286
NCI-H1792 | 0.252
NCI-H1355 | 0.384
NCI-H3122 | 0.634
NCI-H1437 | 0.432
NCI-H1755 | 0.41
HCC-15 | 0.685
NCI-H1793 | 0.378
PC-14 | 0.75
EKVX | 0.425
LC-2-ad | 0.505
NCI-H1944 | 0.284
NCI-H1975 | 0.314
RERF-LC-KJ | 0.556
ABC-1 | 0.73

Same assay, conditions: first compound 0.3162 µM

Cell Line | relative viability
LU99A | 0.293
BEN | 0.574
HARA | 0.458
HCC-78 | 0.187
NCI-H322M | 0.476
LCLC-97TM1 | 0.21
A-427 | 0.732
NCI-H441 | 0.486
NCI-H1734 | 0.423
NCI-H460 | 0.306
NCI-H2347 | 0.858
NCI-H1395 | 0.553
201T | 0.644
NCI-H1915 | 0.871
HCC-827 | 0.916
LXF-289 | 0.723
NCI-H23 | 0.445

Cell Line | relative viability
NCI-H647 | 0.368
NCI-H1651 | 0.523
EPLC-272H | 0.301
NCI-H1792 | 0.233
NCI-H1355 | 0.392
NCI-H3122 | 0.598
NCI-H1437 | 0.406
NCI-H1755 | 0.408
HCC-15 | 0.738
NCI-H1793 | 0.346
PC-14 | 0.72
EKVX | 0.411
LC-2-ad | 0.385
NCI-H1944 | 0.35
NCI-H1975 | 0.235
RERF-LC-KJ | 0.567
ABC-1 | 0.569

Same assay, conditions: first compound 1 µM

Cell Line | relative viability
LU99A | 0.324
BEN | 0.596
HARA | 0.419
HCC-78 | 0.177
NCI-H322M | 0.413
LCLC-97TM1 | 0.158
A-427 | 0.554
NCI-H441 | 0.466
NCI-H1734 | 0.461
NCI-H460 | 0.203
NCI-H2347 | 0.472
NCI-H1395 | 0.57
201T | 0.723
NCI-H1915 | 0.979
HCC-827 | 1.19
LXF-289 | 0.793
NCI-H23 | 0.417

Cell Line | relative viability
NCI-H647 | 0.44
NCI-H1651 | 0.639
EPLC-272H | 0.314
NCI-H1792 | 0.249
NCI-H1355 | 0.472
NCI-H3122 | 0.55
NCI-H1437 | 0.378
NCI-H1755 | 0.382
HCC-15 | 0.743
NCI-H1793 | 0.317
PC-14 | 0.564
EKVX | 0.463
LC-2-ad | 0.397
NCI-H1944 | 0.334
NCI-H1975 | 0.261
RERF-LC-KJ | 0.535
ABC-1 | 0.634

Compound: CCn1c(-c2nonc2N)nc2c(C#CC(C)(C)O)ncc(OC[C@H]3CCCNC3)c21 + NC(=O)Nc1cc(-c2cccc(F)c2)sc1C(=O)N[C@H]1CCCNC1 [AZD7762] (partner 0.2 µM)
Assay: as above
Details: first compound 0.01 µM
How it was run: as §1

Cell Line | relative viability
LU99A | 0.345
BEN | 0.629
HARA | 0.269
HCC-78 | 0.627
NCI-H322M | 0.591
LCLC-97TM1 | 0.279
A-427 | 0.701
NCI-H441 | 1.11
NCI-H1734 | 0.66
NCI-H460 | 0.633
NCI-H2347 | 0.612
NCI-H1395 | 0.379
201T | 0.679
NCI-H1915 | 0.699
HCC-827 | 0.233
LXF-289 | 1.2
NCI-H23 | 0.222

Cell Line | relative viability
NCI-H647 | 0.433
NCI-H1651 | 0.401
EPLC-272H | 0.198
NCI-H1792 | 0.761
NCI-H1355 | 0.768
NCI-H3122 | 1.01
NCI-H1437 | 1.03
NCI-H1755 | 0.501
HCC-15 | 1.2
NCI-H1793 | 0.45
PC-14 | 0.31
EKVX | 0.699
LC-2-ad | 0.86
NCI-H1944 | 0.682
NCI-H1975 | 0.663
RERF-LC-KJ | 1
ABC-1 | 0.705

Same assay, conditions: first compound 0.03162 µM

Cell Line | relative viability
LU99A | 0.363
BEN | 0.696
HARA | 0.629
HCC-78 | 0.532
NCI-H322M | 0.661
LCLC-97TM1 | 0.269
A-427 | 0.767
NCI-H441 | 1.17
NCI-H1734 | 0.581
NCI-H460 | 0.649
NCI-H2347 | 0.738
NCI-H1395 | 0.329
201T | 0.713
NCI-H1915 | 0.698
HCC-827 | 0.256
LXF-289 | 1.15
NCI-H23 | 0.268

Cell Line | relative viability
NCI-H647 | 0.437
NCI-H1651 | 0.472
EPLC-272H | 0.171
NCI-H1792 | 1.01
NCI-H1355 | 0.762
NCI-H3122 | 1.03
NCI-H1437 | 1.17
NCI-H1755 | 0.418
HCC-15 | 1.26
NCI-H1793 | 0.716
PC-14 | 0.285
EKVX | 0.687
LC-2-ad | 0.874
NCI-H1944 | 0.47
NCI-H1975 | 0.694
RERF-LC-KJ | 1.07

Same assay, conditions: first compound 0.1 µM

Cell Line | relative viability
LU99A | 0.379
BEN | 0.562
HARA | 0.485
HCC-78 | 0.579
NCI-H322M | 0.562
LCLC-97TM1 | 0.206
A-427 | 0.747
NCI-H441 | 1
NCI-H1734 | 0.452
NCI-H460 | 0.575
NCI-H2347 | 0.636
NCI-H1395 | 0.433
201T | 0.628
NCI-H1915 | 0.672
HCC-827 | 0.273
LXF-289 | 1.11
NCI-H23 | 0.228

Cell Line | relative viability
NCI-H647 | 0.45
NCI-H1651 | 0.454
EPLC-272H | 0.17
NCI-H1792 | 0.794
NCI-H1355 | 0.827
NCI-H3122 | 0.997
NCI-H1437 | 1.18
NCI-H1755 | 0.382
HCC-15 | 1.17
PC-14 | 0.356
EKVX | 0.632
LC-2-ad | 0.885
NCI-H1944 | 0.596
NCI-H1975 | 0.811
RERF-LC-KJ | 0.949
ABC-1 | 0.568

Same assay, conditions: first compound 0.3162 µM

Cell Line | relative viability
LU99A | 0.297
BEN | 0.686
HARA | 0.156
HCC-78 | 0.614
NCI-H322M | 0.516
LCLC-97TM1 | 0.292
A-427 | 0.696
NCI-H441 | 0.988
NCI-H1734 | 0.548
NCI-H460 | 0.636
NCI-H2347 | 0.63
NCI-H1395 | 0.368
201T | 0.51
NCI-H1915 | 0.648
HCC-827 | 0.199
LXF-289 | 1.06
NCI-H23 | 0.208

Cell Line | relative viability
NCI-H647 | 0.423
NCI-H1651 | 0.447
EPLC-272H | 0.192
NCI-H1792 | 0.612
NCI-H1355 | 0.625
NCI-H3122 | 0.975
NCI-H1437 | 1.08
NCI-H1755 | 0.406
HCC-15 | 1.13
NCI-H1793 | 0.412
PC-14 | 0.31
EKVX | 0.732
LC-2-ad | 0.839
NCI-H1944 | 0.513
NCI-H1975 | 0.695
RERF-LC-KJ | 0.867
ABC-1 | 0.716

Same assay, conditions: first compound 1 µM

Cell Line | relative viability
LU99A | 0.378
BEN | 0.696
HARA | 0.299
HCC-78 | 0.445
NCI-H322M | 0.625
LCLC-97TM1 | 0.294
A-427 | 0.777
NCI-H441 | 1.1
NCI-H1734 | 0.504
NCI-H460 | 0.618
NCI-H2347 | 0.562
NCI-H1395 | 0.389
201T | 0.68
NCI-H1915 | 0.607
HCC-827 | 0.196
LXF-289 | 1.1
NCI-H23 | 0.265
